The results in this text go back to patent US20240148664A1, “LIPID AND COMPOSITION” (SOGO PHARMACEUTICAL CO., LTD., priority 2021, published 2024).

For the data set, the system named is HT1080-EGFP (human/fibrosarcoma) cells. As to the kind of experiment: Evaluation of toxicity: CCK-8 assay. In kind it is cell-based. The settings on record: lipid nanoparticle containing siRNA; absorbance relative to control cells without lipid nanoparticle set at 1.00. How it is done: A. Provision of Cells • (i) A liquid medium (DMEM/Ham's F12, FBS+, P/S+) (FBS: fetal bovine serum, P/S: antibiotic) was taken out from a refrigerator and temperature-controlled in an incubator set at 37° C. • (ii) A cryotube containing the cells was taken out from a −80° C. freezer and thawed at once in an incubator set at 37° C. • (iii) A stock solution of the thawed cells was collected in a capped test tube. • (iv) The tube containing the cells was washed with the liquid medium, and the wash was also collected in the test tube. • (v) The tube was subjected to a centrifuge to precipitate the cells. • (vi) The supernatant was aspirated, and the liquid medium was added and gently tapped to disperse the cells. • (vii) A small amount of the cells-dispersed liquid medium was collected, and the number of cells was observed and counted under a microscope. • (viii) The cells were seeded in a 24-well plate such that the number of cells was 2×10^4 cells per well. For the plate for an LDH assay described later, the cells were seeded in a 96-well plate such that the number of cells was 4×10^3 cells per well. • (ix) The 24-well plate or the 96-well plate was placed in an incubator, and the cells were cultured for 24 hours under conditions of 37° C. and 5% CO2.
The produced lipid nanoparticles were introduced into cells. • (i) Fetal bovine serum (FBS) was added to a liquid medium (FBS-, P/S-) temperature-controlled as in (i) of A above, in such a way as to reach 10%. • (ii) A 24-well plate was taken out from an incubator, and the liquid medium supernatant in the 24-well plate was aspirated and washed with phosphate buffered saline (PBS). • (iii) 400 μL of the liquid medium produced in (i) above was added to the washed 24-well plate. In addition, 100 μL of an LNP solution having an adjusted concentration was added. • (iv) The 24-well plate was placed in the incubator, and the cells were cultured (for 24 hours). • (v) After 24 hours, the liquid medium supernatant in the 24-well plate was aspirated, and 500 μL of a liquid medium containing 10% FBS (FBS+/P/S+) was added. • (vi) The 24-well plate was placed in the incubator, and the cells were cultured for 24 hours under conditions of 37° C. and 5% CO2.
For Examples 1 to 9, a CCK-8 assay or an LDH assay was carried out to measure the metabolic activity of viable cells and relatively quantify the number of surviving cells to evaluate the toxicity of lipid nanoparticles.
(a) CCK-8 Assay • (i) Fetal bovine serum (FBS) and a viable cell counting kit (manufactured by DOJINDO LABORATORIES, Cell Count Kit-8) was added to a liquid medium (FBS-, P/S-) temperature-controlled as in (i) of A above, such that FBS was 10% and the kit was 10%. • (ii) A 24-well plate was taken out from an incubator. The liquid medium was removed, and 315 μL of the liquid medium containing the viable cell counting kit produced in (i) above was added. • (iii) The liquid medium was aged for 1 hour in the incubator. • (iv) The 24-well plate was taken out, and the absorbance was measured under conditions of a measurement wavelength of 450 nm and a target wavelength of 630 nm with a plate reader (manufactured by TECAN, Infinite M200). The absorbance was calculated with the absorbance of control cells to which no lipid nanoparticle was added set at 1.00. When the obtained value was 0.80 or more and 1.00 or less, a rating of double-circle (excellent) was given, when the obtained value was 0.50 or more and less than 0.80, a rating of circle (good) was given, when the obtained value was 0.20 or more and less than 0.50, a rating of triangle (fair) was given, and when the obtained value was less than 0.20, a rating of X-mark (poor) was given.
A general note: Tetrazolium assays rely on reduction of a dye to a coloured formazan, in cell work by metabolically active cells.
For the molecule `CCCCCCCC/C=C\CCCCCCCCC(CCCCCCC/C=C\CCCCCCCC)OC(=O)C(CC(=O)O)NC(=O)C(N)CCCNC(=N)N` (stereo not drawn) [Example 1, 3-(2-amino-5-guanidinopentanamido)-4-(((9Z,27Z)-hexatriaconta-9,27-dien-18-yl)oxy)-4-oxobutanoic acid], the “CCK Assay” value was “⊚ (When the obtained value was 0.80 or more and 1.00 or less, a rating of double-circle (excellent) was given)”.
For `CCCCCCCC/C=C\CCCCCCCCC(CCCCCCC/C=C\CCCCCCCC)OC(=O)C(CCC(=O)O)NC(=O)C(N)CCCNC(=N)N` (stereo not drawn) [Example 2, 4-(2-amino-5-guanidinopentanamido)-5-(((9Z,27Z)-hexatriaconta-9,27-dien-18-yl)oxy)-5-oxopentanoic acid], the “CCK Assay” value is “⊚ (When the obtained value was 0.80 or more and 1.00 or less, a rating of double-circle (excellent) was given)”.
The same measure for `CCCCCCCC/C=C\CCCCCCCCC(CCCCCCC/C=C\CCCCCCCC)OC(=O)C(CO)NC(=O)C(N)CCCNC(=N)N` [Example 4, (9Z,27Z)-hexatriaconta-9,27-dien-18-yl (2S)-2-((S)-2-amino-5-guanidinopentanamido)-3-hydroxypropionate]: “◯ (when the obtained value was 0.50 or more and less than 0.80, a rating of circle (good) was given)”.
